Results as given in patent US20170260210A1, “METHOD FOR PREPARING MARMYCIN A AND ANALOGUES THEREOF, AND ALSO USES THEREOF” (Centre national de la recherche scientifique, priority 2014, published 2017).
Entries after “also recorded” stand apart in the source; their conditions may differ. Values belong to the molecule of their own block, whether it stands above or below them.

Tests used:
[1] = system: HMLER CD24- cancerous stem cell line (HMLER CD44high/CD24low); test: Cell viability assay on HMLER CD24- cancerous stem cell line; format: cell-based, human
Method: (§1) Cell viability: cell viability was assessed using the following protocol:
(§2) Seeding 1000 cells/well in a 96-well plate. The cells were treated for 72 hours. After a treatment time of 72 hours the reagent CellTiter-Blue® Reagent (G8081, Promega) was added and the cells incubated for one hour before recording fluorescence intensities (Excitation, 560/20 nm; Emission, 590/10 nm) using a Perkin Elmer Wallac 1420 Victor2 Microplate Reader.
(§3) Cell culture: the following material was used: saline buffer <<Dulbecco's Phosphate-Buffered Saline>> (14190-094, 500 mL, Gibco), DMEM/F12 (31331-028, 500 mL, Gibco), DMEM high-glucose with UltraGlutamine (BE12-604F/U1, BioWhittaker, Lonza), McCoy's 5A medium (Modified) (26600-023, Gibco), RPMI 1640 with L-glutamine (BE12-702F/U1, BioWhittaker, Lonza), Foetal Bovine Serum—FBS, 10270-106, Gibco), Hydrocortisone (H0888, Sigma), Insulin (10516, Sigma or 19278, Sigma), BD Epidermal growth factor human recombinant (hEGF, 354052, BD Biosciences), PEN-STREP (DE17-602E, BioWhittaker, Lonza), puromycin dihydrochloride (A11138-02, 460 Life Technologies).
The human mammary epithelial cell line was infected with a retrovirus carrying hTERT, SV40 and the oncogenic allele HrasV12, called HMLER CD44high/CD24 low cells, not expressing E-cadherin and Vimentin (reference HMLER CD24low or HMLER CD44+/CD24−), courteously offered by A. Puisieux (INSERM).
(§4) The HMLER CD44^high/CD24^low cells (Cancer stem cells—CSCs), HMLER CD44^high/CD24^high (non-CSCs) were cultured in DMEM/F12 supplemented with 10% FBS, 10 μg/mL insulin, 0.5 μg/mL hydrocortisone, 10 ng/mL hEGF and 0.5 μg/mL of puromycin.

lysosomes of U2OS cells = test: Cell location by fluorescence (LysoTracker DND-22, GFP-Lamp1, DAPI) in U2OS cells; format: cell-based; settings: U2OS cells treated 24 hours with 10 μM
Method: U2OS cells cultured to less than 40% confluence were treated for 24 hours with 10 μM of compound unless otherwise indicated. The marker LysoTracker® Blue DND-22 (L7525, Molecular Probes@) was added 30 minutes before fixing. GFP-Lamp1 was transiently transfected following the manufacturer's instructions. To summarise, […] of CellLight® Lysosomes-GFP BacMam 2.0 (C10596, Life Technologies) were mixed with […] of U2OS culture medium and added to each well of a 24-well plate. After overnight incubation (16 hours), the cells were washed and treated with Marmycin A as indicated in Example 9. For analysis by immunofluorescence, the cells were fixed 12 minutes in 2% formaldehyde/PBS, permeabilised 10 min with 0.1% Triton X/PBS and […] for 1 h with 5% BSA, 0.2% Tween-20/PBS (blocking buffer). Cover glasses were incubated with anti-LAMP1, p62, antibodies, diluted to 1/100 in the blocking buffer overnight at 4° C. The cells were then washed 3 times with 0.2% Tween-20/PBS, and incubated as described above with anti-mouse Alexa 488-conjugated secondary antibody (A11029, Invitrogen) diluted to 1/500 in blocking buffer. The cover glasses were washed as described above and mounted with VectaShield® mounting medium for analysis by fluorescence with or without DAPI (Vector Laboratories Ltd). The images were obtained with a Leica microscope […] and analysed with ImageJ software. […]

[2] = system: MDA-MB-231 cells (human breast cancer cells); test: Cell viability assay (CellTiter-Blue) on MDA-MB-231 cells; format: cell-based
Method: MDA-MB-231 cells (human breast cancer cells) purchased from ATCC were held in McCoy's 5A medium, supplemented with 10% foetal bovine serum (FBS)) and 1× Antibiotic-Antimycotic (all from Gibco®) at 37° C. with 5% CO2.
Cell viability was measured by seeding 2000 cells per well in a 96-well plate. N-Acetyl Cystein (NAC, A9165 Sigma) or Pan-caspase zVAD-FMK inhibitor (550377 from BD pharmingen) were pre-treated for 1 hour or 30 minutes respectively before treatment with the assayed compounds. The reagent <<CellTiter-Blue® Reagent>> (20 μl/well) was added after a treatment time of 24, 48 or 72 hours, and the cells were incubated for one hour before fluorescence detection (560(20)Ex/590(10)Em) on a Perkin Elmer Wallac 1420 Victor2 Microplate Reader.
The assayed compounds were doxorubicin, marmycin A, artesunate, artesumycin and a combination of marmycin A and artesunate (cf. FIG. 9).

[3] = system: HMLER ID2 cancerous cell line; test: Cell viability assay on HMLER ID2 cancerous cell line; format: cell-based, human; settings: HMLER ID2 cells
Method: as §1, §2, §3
The line referenced HMLER ID2 is a hTert, SV40, HRasV12 transformed line, isogenic but non-stem.
as §4

[4] = system: DNA-damage response (phosphorylation of H2AX on ser139, phosphorylation of P53, induction of P21); test: Western Blot analysis of DNA-damage response; format: cell-based; settings: cells treated as in Example 10
Method: The cells treated as indicated in Example 10 were washed twice in PBS and lysed with Laemmli buffer 2×. The cell extracts were brought to the boil for five minutes at 100° C. and quantified with a Nanodrop 2000 device (Thermal Scientific). 100 μg of protein lysate were separated with 4-20% Mini-PROTEAN® TGX Stain-Free™ gel (BioRad) and transferred onto a nitrocellulose membrane (Amersham). Stains were detected with different antibodies such as anti-β-actin (ab8226, Abcam), anti-p62 (610833, BD Transduction Laboratories™), anti-H2AX (PA1-14198, Thermal Scientific), anti-gH2AX (Ser139) (#2577, Cell Signaling), anti-p21, anti-p53 (1C12) (#2524, Cell Signaling), anti-p-p53, anti-LC3B (#2775, Cell Signaling), anti-BID, diluted to 1/1000 in 5% BSA, 0.1% Tween-20/TBS.

[5] = system: A2780 cells (ovarian cancer line); test: Cell proliferation/viability assay (CellTiter-Blue) on A2780 cells; format: cell-based; settings: Homo sapiens, at 72 hours
Method: (§5) U2OS and A2780 cells purchased from ATCC were held in McCoy's 5A or RPMI 1640 medium respectively, supplemented with 10% foetal bovine serum (FBS)) and 1× Antibiotic-Antimycotic (all from Gibco®) at 37° C. with 5% CO2. Measurement of cell viability was carried out by seeding 2000 cells per well in a 96-well plate. N-Acetyl Cystein (NAC, A9165 Sigma) or Pan-caspase zVAD-FMK inhibitor (550377 by BD pharmingen) were pre-treated for 1 hour or 30 minutes respectively before treatment with Marmycin A. The reagent <<CellTiter-Blue®>> Reagent) (20 μl/well) was added after 24, 48, or 72 treatment hours, and the cells were incubated for one hour before fluorescence detection (560(20)Ex/590(10)Em) on a Perkin Elmer Wallac 1420 Victor2 Microplate Reader.

[6] = system: HT1080 cells (fibrosarcoma line); test: Cell viability assay (CellTiter-Blue) on HT1080 cells; format: cell-based
Method: as §5
The same protocol was followed to evaluate cell viability of HT1080 cells in the presence of compound 33 of Example 6 (called Oxamethoxymarmycin), doxorubicin or etoposide.

[7] = system: U2OS cells (osteosarcoma cancer line); test: Cell proliferation/viability assay (CellTiter-Blue) on U2OS cells; format: cell-based; settings: Homo sapiens, at 72 hours
Method: as §5

[8] = system: human breast, prostate, lung, colon, ovarian cancer lines and leukaemia; settings: cited from earlier work
[9] = Homo sapiens, HT-1080, at 72 hours

Molecule: COc1cccc2c1C(=O)c1c(O)c3c(c(O)c1C2=O)C[C@@](O)(C(=O)CO)C[C@@H]3O[C@H]1C[C@H](N)[C@H](O)[C@H](C)O1 [doxorubicin, reference compound]
DNA-damage response (Western Blot) [4]: generates a DNA-damage response | IC50 [5]: 60 nM | IC50 [6, 9]: 35 nM | IC50 [7]: 100 nM

Molecule: Oxamethoxymarmycin
IC50 ([6]; at 72 hours): 75000 nM

Second part, led by results:

IC50 ([1]; Homo sapiens, HMLER CD24- cancerous stem cells, 72 hours): 100 nM | IC50 ([2]; Homo sapiens, 72 h treatment): 900 nM | IC50 ([3]; Homo sapiens, 72 hours): 98 nM
Molecule: Cc1ccc2c3c(ccc2c1)C(=O)c1c(ccc2c1NC1(C)CC2O[C@@H](C)[C@@H]1OC(=O)CCC(=O)OC1O[C@@H]2O[C@@]4(C)CC[C@H]5[C@H](C)CC[C@@H]([C@H]1C)[C@@]25OO4)C3=O (stereo partly drawn) [artesumycin]
cytotoxic activity compared with artesunate ([1]; HMLER CD24- cells): higher than that of artesunate | cell viability ([1]; HMLER CD24- cells, concentration of 1 μm, 72 hours): about 18% | cell location (lysosomes of U2OS cells): accumulates in the lysosomes | cytotoxic activity compared with other treatments [2]: higher than that of marmycin A and also higher than that of marmycin A combined with artesunate; also recorded: synergic effect | cell viability ([2]; concentration of 0.9 μm): less than 50% | cytotoxic activity compared with artesunate [3]: higher than that of artesunate | cell viability ([3]; concentration of 0.1 μm, 72 hours): about 44%

IC50 [6, 9]: 500 nM
Molecule: COc1cc([C@@H]2c3cc4c(cc3[C@@H](O[C@@H]3O[C@@H]5CO[C@@H](C)O[C@H]5[C@H](O)[C@H]3O)[C@H]3COC(=O)[C@H]23)OCO4)cc(OC)c1O [etoposide]

IC50 [5]: 9800 nM | IC50 [7]: 10300 nM
Molecule: Cc1ccc2c3c(ccc2c1)C(=O)c1c(ccc2c1NC1(C)CC2O[C@@H](C)[C@@H]1O)C3=O (stereo partly drawn) [marmycin A]
cell location (lysosomes of U2OS cells): not located at the cell nucleus but at the site of the lysosomes; also recorded: accumulates in the lysosomes | cytotoxic properties [8]: cytotoxic properties | DNA-damage response (Western Blot) [4]: only scarcely damages caspase-dependent DNA
